Eleven molecules from patent publication US20210347823A1, “METHODS OF PHYSICOCHEMICAL-GUIDED PEPTIDE DESIGN AND NOVEL PEPTIDES DERIVED THEREFROM” (Massachusetts Institute of Technology, priority 2018, published 2021) can be followed below.

Where no end group is shown, it is not given here. A value given as a limit tells only on which side of the number the result lay.

One data set has as its system human red blood cells. Briefly: Hemolytic activity assay. Particulars: for HC50: concentration needed for 50% hemolysis, human RBC in PBS, room temperature, 1 h, 0.1-100 μmol L^−1. In kind it is cell-based. As for the experimental part:
(§1) FIGS. 6A-6B. Hemolysis and resistance to protease-mediated degradation of engineered peptides. FIG. 6A. Schematic of experimental design and hemolytic assay results of Pol-CP—NH2 and derivatives, where hemolytic activity was evaluated by incubating the peptides (0.1-100 μmol L^−1) with human red blood cells in PBS at room temperature for 1 h. Experiments were performed in triplicate, (*p<0.05). FIG. 6B. Resistance to degradation of Pol-CP—NH2 and analogs exposed to fetal bovine serum (FBS) proteases for 6 h. Experiments were done in triplicate.
Hemolytic Activity Assays. Human erythrocytes were collected and washed three times by centrifugation at 300×g with PBS (pH 7.4). After the last centrifugation, the cells were resuspended in PBS pH 7.4. Aliquots at a concentration of 0.1 to 100 ? mol L^−1 of the peptides were added to the 96-well microplate, where in each well containing 50 ? L of a suspension of erythrocytes to 0.4% in a phosphate saline buffer (10 mmol L^−1 Na2HPO4, 1.8 mmol L^−1 […], pH 7.4, 137 mmol L^−1 NaCl and 2.7 mmol L^−1KCl). After that, the samples were incubated at room temperature for 1 h. Hemolysis was determined by reading absorbance at 405 nm of each well in a bed of plates. 1% SDS in PBS solution was used as positive control (Shalel S. et al., J. Colloid Interface Sci. 252, 66-76 (2002); Love L. J. Cell. Comp. Physiol. 36, 133-148 (1950)) and as negative control was used PBS only. MHC was defined as the maximal non-hemolytic concentration.

In data set [1] the test system is Gram-positive bacteria, Gram-negative bacteria and fungi (twelve different strains). Briefly: Liquid growth inhibition MIC against larger panel of microorganisms (MIC average). In kind it is cell-based. Particulars: average of MIC over twelve different strains. From the text:
FIGS. 5A-5D. Antimicrobial activity of second-generation library of synthetic peptides. FIG. 5A. In vitro activity of Pol-CP—NH2 and second generation of analogs against Gram-positive bacteria (Micrococcus luteus, Staphylococcus aureus, Staphylococcus epidermidis and Bacillus megaterium), Funghi (Candida albicans and Candida tropicalis) and Gram-negative bacteria (Escherichia coli, Enterobacter cloacae and Serratia marcescens). Experiments performed in triplicates. FIG. 5B. MIC (μmol L^−1) average vs fH in TFE/Water solution. FIG. 5C. Graph correlating MIC (μmol L^−1) averages vs H and (FIG. 5D) MIC (μmol L^−1) averages vs μH, where dots above the dashed line represent peptides with lower activity and dots below the dashed line show peptides with higher activity compared to the wild-type, in which one can observe ranges of optimal activity in determined intervals of H and μH values.
Microorganisms. The following strains were used: Micrococcus luteus A270, Staphylococcus aureus ATCC29213, Staphylococcus epidermidis ATCC12228, Bacillus megaterium ATCC10778 Escherichia coli SBS 363, Enterobacter cloacae ®-12, Serratia marcescens ATCC4112, Candida albicans MDM8, Candida tropicalis IOC4560 from Instituto Butanta, Sao Paulo, Brazil, and Escherichia coli BL21, Pseudomonas aeruginosa PA14, Pseudomonas aeruginosa PA01 and Staphylococcus aureus ATCC12600 from Synthetic Biology Group at MIT.
MIC assays. The MIC assays were performed using the broth microdilution method (Wiegand I. et al., Protoc. 3, 163-175 (2008); de la Fuente-Núñez C. et al., Antimicrob. Agents Chemother. 56, 2696-2704 (2012)) in sterile 96-well polypropylene microtiter plates. Peptides were added to the plate as solutions in BM2 minimal medium in concentrations ranging from 0 to 128 ? mol L^−1, and the bacteria were inoculated at a final concentration of 5×10^5 CFU mL^−1 per well. The plates were incubated at 37° C. for 24 h. The MIC was defined as the lowest concentration of compound at which no growth was observed. Additional liquid growth inhibition assays were done in Peptone Broth (PB, 0.5% NaCl, 1% Peptone at pH 7.4) and Potato Dextrose Broth (Invitrogen) were used for antibacterial and antifungal assays, respectively. Briefly, bacteria or fungi were incubated with serial dilutions of polybia-CP and analogs (50-0.09 μmol L^−1) in a 96-well microplate at 37° C. The microbial growth was assessed by measurements in a model 354 Multiskan Ascent microplate reader at A595nm, after 18 and 24 h (bacteria and fungi, respectively) incubation on a model 347CD FANEM incubator. MIC was defined as the minimal inhibitory concentration that prevents 100% of the bacterial growth. All assays were done in triplicate.

Data set [2] concerns HEK293 human embryonic kidney cells. Nature of the data set: Cytotoxicity assay (MTS). In kind it is cell-based. To be noted: for Cytotoxicity: HEK293, 48 h, MTS, peptides 0-64 μmol L^−1. As for the experimental part:
FIGS. 7A-7B. Cytotoxicity of engineered peptides. FIG. 7A. Schematic of the experimental design for cytotoxicity assays of Pol-CP—NH2 and derivatives against HEK293 human embryonic kidney cells. Briefly, cells were cultured in DMEM medium supplemented with FBS and antibiotics at 37° C. and 5% CO2. FIG. 7B. Results obtained by seeding HEK293 50,000 cells and incubating with peptides' solution (0-64 μmol L^−1) at 37° C. for 48 h. Cell viability was measured by MTS assay. All experiments were performed in triplicate.
Cytotoxicity assays. Human embryonic kidney 293 (HEK 293) cells were cultured in Dulbecco's Modified Eagle Medium (DMEM) supplemented with 10% Fetal Bovine Serum (FBS) and 1% penicillin-streptomycin at 37° C. in 5% CO2. The day before treatment, 50,000 HEK 293 cells were seeded into each well in 96-well plates. The peptides were added at concentrations ranging from 0 to 64 ? mol L^−1 and 48 h after exposure, cell viability was measured by means of MTS (dimethylthiazol-carboxymethoxyphenyl-sulfophenyl-tetrazolium) assay. Experiments were performed in triplicate for each condition.

The nature of data set [3]: Stability assay in fetal bovine serum. The format is in vitro ADME. Particulars: for resistance to protease-mediated degradation: fetal bovine serum, 6 h. As for the experimental part:
as §1
Stability Assays. The stability assay was performed with GIBCO fetal bovine serum diluted to 25% in water. 20 ? L of a 10 mg mL^−1 peptide solution was added to 1 mL 25% serum solution and kept at 37° C. The experiments were made in triplicate and 100 ? L aliquots were taken at 0, 0.5, 1, 2, 4 and 6 h. 10 ? L of TFA was added to the aliquots and the new solution was kept at 5° C. for 10 min, after that it was centrifuged at 14,000 rpm for 15 min, according to Powell et al. (Powell M. F. et al., Pharm. Res. 10, 1268-1273 (1993)). The reaction kinetics was followed by liquid chromatography and the percentage of remaining peptide was calculated by integrating the peptide peak area.

Data set [4] relates to E. coli BL21, P. aeruginosa PA01 and PA14, and S. aureus ATCC12600. Briefly: In vitro antimicrobial activity against first set of bacteria (Ala-scan analogs). In kind it is cell-based. To be noted: Gram-positive and Gram-negative bacteria. From the text:
FIGS. 2A-2E. Design, physicochemical features and activity of Pol-CP—NH2 and Ala-scan analogs. FIG. 2A. Theoretical physicochemical properties of interest of the wild type and Ala-scan analogs, where H denotes hydrophobicity, μH is the hydrophobic moment, q represents the net charge and P/N is the ratio of polar/non-polar residues in the sequence. Top to bottom, left to right the sequences correspond to SEQ ID NOs: 1-13. FIG. 2B. Schematic of the in vitro biological activity experimental design. Briefly, 10^4 bacterial cells and serially diluted peptides (0-128 μmol L^−1) were added to a 96-well plate and incubated at 37° C. One day after the exposure, the solution in each well was measured in a microplate reader (600 nm) to check inhibition of bacteria compared to the untreated controls and presented as heat maps of antimicrobial activities (μmol L^−1) against four bacteria strains: E. coli strain BL21, S. aureus strain ATCC12600 and P. aeruginosa strains PA01, and PA14. Assays were performed in triplicates. FIG. 2C. Graph correlating MIC (μmol L^−1) averages vs H and (FIG. 2D) MIC (μmol L^−1) averages vs μH, where dots […] the dashed line show peptides with higher activity compared to the wild type, in which one can observe ranges of optimal activity in determined intervals of H and μH values. FIG. 2E. […]

For `CC[C@H](C)[C@H](N)C(=O)N[C@@H](CC(C)C)C(=O)NCC(=O)N[C@H](C(=O)N[C@H](C(=O)N[C@@H](CC(C)C)C(=O)NCC(=O)N[C@@H](CC(C)C)C(=O)N[C@@H](CC(C)C)C(=O)N[C@@H](CCCCN)C(=O)N[C@@H](CO)C(N)=O)[C@@H](C)CC)[C@@H](C)O` [Peptide 18], in the data set with human red blood cells, the HC50 (usually the concentration giving 50% haemolysis) was more than 100.0 µmol/L. Also, the “MIC Average” value in data set [1] was more than 50.0 µM.

For the molecule “GLGTILGLLKSL-NH2 [Peptide 20, GLGTILGLLKSL-NH2]”, the HC50 in the data set with human red blood cells was more than 100.0 µmol/L. In data set [2], this molecule had a Cytotoxicity of more than 64.0 µmol/L. Moreover, the “resistance to protease-mediated degradation” value in data set [3] was “degraded in a few minutes”. Further, the “MIC Average” value in data set [1] stood at 16.7 µM.

“ILATILGLLKSL-NH2 [Peptide 3, ILATILGLLKSL-NH2]” came in with a Cytotoxicity in data set [2] of more than 64.0 µmol/L.

In the data set on human red blood cells, “ILGKILGLLKSL-NH2 [Peptide 15, ILGKILGLLKSL-NH2]” gave an HC50 of more than 100.0 µmol/L. Moreover, the Cytotoxicity in data set [2] was found to be 32.0 µmol/L. The “cytotoxic concentration relative to MIC against P. aeruginosa” value in data set [2] (HEK293 cytotoxicity vs MIC) is “two- to four-fold higher”. The remaining at 6 h, 0.196 mg/mL in data set [3] (fetal bovine serum diluted to 25% in water, after six hours of exposure to fetal bovine serum, read-out: remaining peptide (% of initial concentration added)) was approximately 50%. Besides, in data set [3], the “resistance to protease-mediated degradation” value is listed as “increased resistance to protease-mediated degradation”. Besides, in data set [1], the “MIC Average” value was determined as 3.3 µM.

In turn, “ILGTALGLLKSL-NH2 [Peptide 5, ILGTALGLLKSL-NH2]” showed a Cytotoxicity in data set [2] of more than 64.0 µmol/L.

As to ILGTIAGLLKSL-NH2 [Peptide 6], in data set [4], the “antimicrobial activity compared with wild type” value was “preserved the antimicrobial activity”.

“ILGTILALLKSL-NH2 [Peptide 7, ILGTILALLKSL-NH2]” yielded a Cytotoxicity in data set [2] of 32.0 µmol/L.

“ILGTILGLFKSL-NH2 [Peptide 17, ILGTILGLFKSL-NH2]” showed an HC50 in the data set on human red blood cells of 50.0 µmol/L. Also, the “hemolytic activity (concentration at which hemolytic)” value with human red blood cells (human red blood cells, range evaluated 0-100 μmol L^−1, listed as [Phe]^9-Pol-CP—NH2) is approximately 50 µmol/L. The “hemolytic activity” value in the data set with human red blood cells (range of concentrations evaluated 0-100 μmol L^−1) is given as “hemolytic”. In addition, the “MIC Average” value in data set [1] worked out at 20.0 µM.

Molecule “ILGTILGLLKAL-NH2 [Peptide 11, ILGTILGLLKAL-NH2]” returned a Cytotoxicity in data set [2] of 64.0 µmol/L.

Molecule “ILGTKLGLLKSL-NH2 [Peptide 14, ILGTKLGLLKSL-NH2]” gave a concentration for 50% haemolysis (HC50) in the data set with human red blood cells of more than 100.0 µmol/L. Further, in data set [1], the “MIC Average” value is more than 50.0 µM.

As to “ILGTLLGLKKSL-NH2 [Peptide 13, ILGTLLGLKKSL-NH2]”, the 50% haemolytic concentration (HC50) in the data set with human red blood cells is more than 100.0 µmol/L. The “MIC Average” value in data set [1] was more than 50.0 µM.
